In ChEMBL document CHEMBL4680208, “Sulfone derivatives enter the cytoplasm of Candida albicans sessile cells” (Eur J Med Chem, 2020):
Calls of active or inactive are those of the source. No cut-off for these calls is given here.

Tests used:
[1] = Drug uptake in Galleria mellonella larvae assessed as increase in fluorescence between cell wall and muscle layer measured after 2 hrs by fluorescence assay; assay type: ADME
[2] = test system: Candida albicans; experiment: Antibiofilm activity against Candida albicans 90028 assessed as increasing in cell killing by XTT assay; assay type: functional

| Drug uptake [1] | SMILES | Activity [2] |
| --- | --- | --- |
| Active | O=Cc1ccc(C2=C3C=CC=[N+]3[B-](F)(F)n3cccc32)cc1 | – |
| – | C[C@@H]1[C@H](O)[C@@H](C)/C=C/C=C/C=C/C=C/C=C/C=C/C=C/[C@H](O[C@@H]2O[C@H](C)[C@@H](O)[C@H](N)[C@@H]2O)C[C@@H]2O[C@](O)(C[C@@H](O)C[C@@H](O)[C@H](O)CC[C@@H](O)C[C@@H](O)CC(=O)O[C@H]1C)C[C@H](O)[C@H]2C(=O)O | Active |
